From patent EP4227307A1 (Genzyme Corporation, priority 2022, dated 2023)
Counter-ions that a name gives are not always drawn.

Biological target: T1, human recombinant 6His-Nterm SHP2 full-length (Thr2-Arg593) (Homo sapiens, UniProt Q06124)
T1 construct: 6His-Nterm SHP2 full-length (Thr2-Arg593, R&D system); 6His (N); purchased R&D system
T1 sequence (Q06124 2-593): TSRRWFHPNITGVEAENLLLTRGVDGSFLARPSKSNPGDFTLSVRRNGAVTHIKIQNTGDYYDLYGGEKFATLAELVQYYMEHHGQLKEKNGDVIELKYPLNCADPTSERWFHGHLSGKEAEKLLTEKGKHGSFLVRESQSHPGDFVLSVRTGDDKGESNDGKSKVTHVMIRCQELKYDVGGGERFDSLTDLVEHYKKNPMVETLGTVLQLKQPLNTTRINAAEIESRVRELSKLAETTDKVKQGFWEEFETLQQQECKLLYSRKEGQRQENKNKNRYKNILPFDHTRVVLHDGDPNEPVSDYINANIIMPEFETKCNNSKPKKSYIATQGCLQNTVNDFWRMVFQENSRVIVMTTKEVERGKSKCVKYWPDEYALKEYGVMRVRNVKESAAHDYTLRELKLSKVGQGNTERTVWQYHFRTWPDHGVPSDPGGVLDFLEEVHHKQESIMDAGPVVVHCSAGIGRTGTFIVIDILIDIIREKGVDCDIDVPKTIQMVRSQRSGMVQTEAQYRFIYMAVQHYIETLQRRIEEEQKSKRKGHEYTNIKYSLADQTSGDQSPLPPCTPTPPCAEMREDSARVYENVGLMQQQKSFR
Assay: SHP2 Phosphatase Assay (DiFMUP fluorescence)
Assay type: biochemical
Settings: SHP2 0.2 nM pre-incubated with 100 nM bi-phosphorylated activating peptide; compound 1000-0.05 nM, 30 min pre-incubation; DiFMUP 20 µM, 45 min, room temperature; 10-concentration dose-response
How it was run: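 SHP2 (0.2 nM) preactivated ≥10 min with 100 nM bis-phosphorylated peptide, then 30 min with compound (10 concentrations, 1000–0.05 nM) at room temperature, pH 7.2 HEPES buffer with DTT. DiFMUP (20 µM, added solution) reacted 45 min, pervanadate-stopped; fluorescence 350/450 nm. IC50 by 4-parameter logistic fit.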

| SMILES | IC50 |
| --- | --- |
| Cc1nc(N2CCC3(CC2)Cc2ncccc2[C@H]3N)c2ccnn2c1-c1ccnc(N2CCOCC2)c1F [Compound 198, (5S)-1'-[7-(3-fluoro-2-morpholino-4-pyridyl)-6-methyl-pyrazolo[1,5-a]pyrazin-4-yl]spiro[5,7-dihydrocyclopenta[b]pyridine-6,4'-piperidine]-5-amine] | 437 nM |
| Cc1nc(N2CCC3(CC2)Cc2ncccc2[C@H]3N)c2ccnn2c1-c1cncc(Cl)c1 [Compound 199, (5S)-1'-[7-(5-chloro-3-pyridyl)-6-methyl-pyrazolo[1,5-a]pyrazin-4-yl]spiro[5,7-dihydrocyclopenta[b]pyridine-6,4'-piperidine]-5-amine] | 14 nM |
| COc1c(F)cccc1-c1c(C)nc(N2CCC3(CC2)Cc2ncccc2[C@H]3N)c2ccnn12 [Compound 200] | 44 nM |
| Cc1nc(N2CCC3(CC2)Cc2ncccc2[C@H]3N)c2ccnn2c1-c1ccc(F)c(F)c1 [Compound 201, (5S)-1'-[7-(3,4-difluorophenyl)-6-methyl-pyrazolo[1,5-a]pyrazin-4-yl]spiro[5,7-dihydrocyclopenta[b]pyridine-6,4'-piperidine]-5-amine] | 3 nM |
| Cc1nc(N2CCC3(CC2)Cc2ncccc2[C@H]3N)c2ccnn2c1-c1ccc2ncccc2c1 [Compound 202, (5S)-1'-[6-methyl-7-(6-quinolyl)pyrazolo[1,5-a]pyrazin-4-yl]spiro[5,7-dihydrocyclopenta[b]pyridine-6,4'-piperidine]-5-amine] | 26 nM |
| Cc1nc(N2CCC3(CC2)Cc2ncccc2[C@H]3N)c2ccnn2c1-c1cccc(F)c1 [Compound 203, (5S)-1'-[7-(3-fluorophenyl)-6-methyl-pyrazolo[1,5-a]pyrazin-4-yl]spiro[5,7-dihydrocyclopenta[b]pyridine-6,4'-piperidine]-5-amine] | 6 nM |
| CC(=O)c1ccc(F)c(-c2c(C)nc(N3CCC4(CC3)Cc3ncccc3[C@H]4N)c3ccnn23)c1 [Compound 204, 1-[4-fluoro-3-[6-methyl-4-[(5S)-5-aminospiro [5,7-dihydrocyclopenta[b]pyridine-6,4'-piperidine]-1'-yl]pyrazolo[1,5-a]pyrazin-7-yl]phenyl]ethanone] | 55 nM |
| Cc1nc(N2CCC3(CC2)Cc2ncccc2[C@H]3N)c2ccnn2c1-c1ccc(C#N)cc1F [Compound 206, 3-fluoro-4-[6-methyl-4-[(5S)-5-aminospiro[5,7-dihydrocyclopenta[b]pyridine-6,4'-piperidine]-1'-yl]pyrazolo[1,5-a]pyrazin-7-yl]benzonitrile] | 12 nM |
| Cc1nc(N2CCC3(CC2)Cc2ncccc2[C@H]3N)c2ccnn2c1-c1ccnc(CO)c1Cl [Compound 207, [4-[4-[(5S)-5-aminospiro[5,7-dihydrocyclopenta[b]pyridine-6,4'-pipetidine]-1'-yl]-6-methyl-pyrazolo[1,5-a]pyrazin-7-yl]-3-chloro-2-pyridyl]methanol] | 16 nM |
| Cc1nc(N2CCC3(CC2)Cc2ncccc2[C@H]3N)c2ccnn2c1-c1ccc(F)c2cc[nH]c12 [Compound 208, (5S)-1'-[7-(4-fluoro-1H-indol-7-yl)-6-methyl-pyrazolo[1,5-a]pyrazin-4-yl]spiro[5,7-dihydrocyclopenta[b]pyridine-6,4'-piperidine]-5-amine] | 3 nM |
| Cc1nc(N2CCC3(CC2)Cc2ncc(C#N)cc2[C@H]3N)c2ccnn2c1-c1ccccc1F [Compound 209, (5S)-5-amino-1'-[7-(2-fluorophenyl)-6-methyl-pyrazolo[1,5-a]pyrazin-4-yl]spiro[5,7-dihydrocyclopenta[b]pyridine-6,4'-piperidine]-3-carbonitrile] | 21 nM |
| Cc1nc(N2CCC3(CC2)Cc2ncccc2[C@H]3N)c2ccnn2c1C1CC1 [Compound 210, (5S)-1'-(7-cyclopropyl-6-methyl-pyrazolo[1,5-a]pyrazin-4-yl)spiro[5,7-dihydrocyctopenta[b]pyridine-6,4'-piperidine]-5-amine] | > 1000 nM |
| COc1ccc2c(n1)[C@@H](N)C1(CCN(c3nc(C)c(-c4cccc(F)c4F)n4nccc34)CC1)C2 [Compound 213, (7S)-1'-[7-(2,3-difluorophenyl)-6-methyl-pyrazolo[1,5-a]pyrazin-4-yl]-2-methoxy-spiro[5,7-dihydrocyclopenta[b]pyridine-6,4'-piperidine]-7-amine] | 22 nM |
| COc1ccc2c(n1)[C@H](N)C1(CCN(c3nc(C)c(-c4cccc(F)c4F)n4nccc34)CC1)C2 [Compound 214, (7R)-1'-[7-(2,3-difluorophenyl)-6-methyl-pyrazolo [1,5-a]pyrazin-4-yl]-2-methoxy-spiro[5,7-dihydrocyclopenta[b]pyridine-6,4'-piperidine]-7-amine] | 594 nM |
| COc1ccc2c(n1)[C@@H](N)C1(CCN(c3nc(C)c(-c4cccc(F)c4Cl)n4nccc34)CC1)C2 [Compound 215, (7S)-1'-[7-(2-chloro-3-fluoro-phenyl)-6-methyl-pyrazolo[1,5-a]pyrazin-4-yl]-2-methoxy-spiro[5,7-dihydrocyclopenta[b]pyridine-6,4'-piperidine]-7-amine] | 23 nM |
| COc1ccc2c(n1)[C@H](N)C1(CCN(c3nc(C)c(-c4cccc(F)c4Cl)n4nccc34)CC1)C2 [Compound 216, (7R)-1'-[7-(2-chloro-3-fluoro-phenyl)-6-methyl-pyrazolo[1,5-a]pyrazin-4-yl]-2-methoxy-spiro[5,7-dihydrocyclopenta[b]pyridine-6,4'-piperidine]-7-amine] | 685 nM |
| Cc1nccc(-c2c(C)nc(N3CCC4(CC3)Cc3cc(F)ccc3[C@H]4N)c3ccnn23)c1Cl [Compound 217, (1S)-1'-[7-(3-Chloro-2-methyl-4-pyridyl)-6-methyl-pyrazolo[1,5-a]pyrazin-4-yl]-5-fluoro-spiro[indane-2,4'-piperidine]-1-amine formate] | 8 nM |
| Cc1nccc(-c2c(C)nc(N3CCC4(CC3)Cc3nc(O)sc3[C@H]4N)c3ccnn23)c1Cl [Compound 218, (6S)-6-amino-1'-[7-(3-chloro-2-methyl-4-pyridyl)-6-methyl-pyrazolo[1,5-a]pyrazin-4-yl]spiro[4,6-dihydrocyclopenta[d]thiazole-5,4'-piperidine]-2-ol hydrochloride] | 179 nM |
| COc1nc2c(s1)[C@@H](N)C1(CCN(c3nc(C)c(-c4ccnc(C)c4Cl)n4nccc34)CC1)C2 [Compound 219, (6S)-1'-[7-(3-chloro-2-methyl-4-pyridyl)-6-methyl-pyrazolo[1,5-a]pyrazin-4-yl]-2-methoxy-spiro[4,6-dihydrocyclopenta[d]thiazole-5,4'-piperidine]-6-amine] | 5 nM |
| COc1nc2c(s1)[C@@H](N)C1(CCN(c3nc(C)c(-c4cnn(C)c4C)n4nccc34)CC1)C2 [Compound 220, (6S)-1'-[7-(1,5-Dimethylpyrazol-4-yl)-6-methyl-pyrazolo[1,5-a]pyrazin-4-yl]-2-methoxy-spiro[4,6-dihydrocyclopenta[d]thiazole-5,4'-piperidine]-6-amine] | 26 nM |
| COc1ccc2c(n1)CC1(CCN(c3nc(C)c(-c4cccc(F)c4F)n4nccc34)CC1)[C@@H]2N [Compound 221, (5S)-1'-[7-(2,3-difluorophenyl)-6-methyl-pyrazolo[1,5-a]pyrazin-4-yl]-2-methoxy-spiro[5,7-dihydrocyclopenta[b]pyridine-6,4'-piperidine]-5-amine] | 21 nM |
